Results on eight compounds are retold here after PubChem BioAssay (NCI).

Structures are written as SMILES.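 Results reflect a 48-hour exposure of cells in 96-well plates to compound at five concentrations. TGI marks complete inhibition of growth.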 Where a SMILES comes first, the peptide text is derived from it. The star is where a group is joined. Fmoc = O=C(OCC1c2ccccc2-c2ccccc21)*; OtBu = CC(C)(C)O*

Among the test systems are HCT-15 colon; MDA-N; MDA-MB-435; SW-620 colon; RXF 393 renal; IGROV1 ovarian; NCI-H226 lung; DU-145 prostate; T-47D breast; U251 CNS; A498 renal; NCI-H460 lung; EKVX NSCLC; MDA-MB-231 breast; HT29 colon; SF-295 CNS.
Assay in all cases: growth of human tumour cells (NCI), 48 h

Take `c1csc(-c2nn3c(C45CC6CC(CC(C6)C4)C5)nnc3s2)c1`: the TGI in the test with HCT-15 colon, in the test on MDA-N, in the test with MDA-MB-435, with SW-620 colon, with RXF 393 renal and in the test with IGROV1 ovarian was greater than 100 µM in each case. Besides, the TGI in the test on NCI-H226 lung, with DU-145 prostate, in the test with T-47D breast, in the test on U251 CNS, with A498 renal and in the test on NCI-H460 lung was greater than 100 µM in each case. Besides, the TGI in the test with EKVX NSCLC, in the test with MDA-MB-231 breast, in the test on HT29 colon and with SF-295 CNS was greater than 100 µM in each case.
Regarding `Nc1nc(Cl)cc(NCC2(O)CCC2)n1`, the TGI in the test on HCT-15 colon, in the test with MDA-N, in the test with MDA-MB-435, with SW-620 colon, with RXF 393 renal and in the test on IGROV1 ovarian was greater than 100 µM in each case. In addition, the TGI with NCI-H226 lung, in the test on DU-145 prostate, in the test on T-47D breast, with U251 CNS, in the test with A498 renal and in the test with NCI-H460 lung was greater than 100 µM in each case. Also, the TGI in the test on EKVX NSCLC, in the test with MDA-MB-231 breast, with HT29 colon and with SF-295 CNS was greater than 100 µM in each case.
For `C=C(Cl)C(Cl)(CBr)CCC(Br)C(C)(C)Br` (stereo not drawn), the TGI in the test with HCT-15 colon came to 9.35 µM; in the test on MDA-N, 21.2 µM; in the test on MDA-MB-435, 24.5 µM; with SW-620 colon, 8.32 µM; in the test on RXF 393 renal, 4.03 µM; with IGROV1 ovarian it was 37.3 µM. Also, the TGI in the test with NCI-H226 lung was 37.2 µM; in the test with DU-145 prostate, 11.9 µM; in the test on T-47D breast, 7.42 µM; in the test on U251 CNS it was 3.37 µM; in the test on A498 renal it was 23.3 µM; with NCI-H460 lung, 3.71 µM. For the same compound, the TGI is 15.6 µM in the test on EKVX NSCLC, 27.6 µM in the test on MDA-MB-231 breast, 2.41 µM with HT29 colon and 3.78 µM in the test with SF-295 CNS.
In the case of `O=C(O)c1ccccc1C(=O)NCC1S(=O)(=O)OCCOS1(=O)=O`, the TGI in the test with HCT-15 colon, in the test on MDA-N, in the test on MDA-MB-435, with SW-620 colon, in the test on RXF 393 renal and in the test on IGROV1 ovarian was greater than 100 µM each time. Moreover, the TGI with NCI-H226 lung, in the test on DU-145 prostate, with T-47D breast, with U251 CNS, in the test with A498 renal and in the test on NCI-H460 lung was greater than 100 µM throughout. The TGI in the test on EKVX NSCLC, with MDA-MB-231 breast, in the test on HT29 colon and in the test on SF-295 CNS was greater than 100 µM in each case.
In the case of `CCOC1OC(COC(=O)C(C)(C)C)C(O)CC1n1cc(C)c(=O)[nH]c1=O` (stereo not drawn), the TGI in the test with HCT-15 colon, in the test with MDA-N, in the test with MDA-MB-435, in the test on SW-620 colon, with RXF 393 renal and in the test on IGROV1 ovarian was greater than 100 µM in each case. The TGI in the test with NCI-H226 lung, in the test on DU-145 prostate, with T-47D breast, in the test with U251 CNS, in the test with A498 renal and with NCI-H460 lung was greater than 100 µM each time. Also, the TGI with EKVX NSCLC, in the test on MDA-MB-231 breast, in the test with HT29 colon and with SF-295 CNS was greater than 100 µM throughout.
As for `Cc1ccc([N+](=O)[O-])cc1S(=O)(=O)Nc1ccc(C2=NN(S(=O)(=O)c3cc([N+](=O)[O-])ccc3C)C(c3ccccc3)C2)cc1` (stereo not drawn), the TGI was greater than 100 µM with HCT-15 colon; 97.3 µM in the test on MDA-N; greater than 100 µM in the test with MDA-MB-435; greater than 100 µM in the test with SW-620 colon; greater than 100 µM in the test with RXF 393 renal; greater than 100 µM with IGROV1 ovarian. For the same compound, the TGI in the test with NCI-H226 lung was greater than 100 µM; with DU-145 prostate, greater than 100 µM; with T-47D breast, greater than 100 µM; in the test with U251 CNS, greater than 100 µM; in the test with A498 renal, 82.6 µM; with NCI-H460 lung, 55.5 µM. In addition, the TGI is greater than 100 µM in the test on EKVX NSCLC, 90.9 µM in the test with MDA-MB-231 breast, greater than 100 µM with HT29 colon and greater than 100 µM in the test with SF-295 CNS.
Take `Cc1cc(S(=O)(=O)Nc2n[nH]c(-c3ccc(Cl)cc3)n2)c(SSc2cc(Cl)c(C)cc2S(=O)(=O)Nc2n[nH]c(-c3ccc(Cl)cc3)n2)cc1Cl`: the TGI is 69.1 µM in the test on HCT-15 colon; greater than 100 µM in the test with MDA-N; greater than 100 µM in the test on MDA-MB-435; 73.5 µM with SW-620 colon; 63.7 µM with RXF 393 renal; 69.2 µM in the test with IGROV1 ovarian. Further, the TGI with NCI-H226 lung was 73.3 µM; with DU-145 prostate, greater than 100 µM; in the test with T-47D breast, 42.2 µM; with U251 CNS it was 78.6 µM; in the test with A498 renal it was 59.1 µM; with NCI-H460 lung, 62.4 µM. Besides, the TGI was 89.6 µM with EKVX NSCLC, greater than 100 µM in the test with MDA-MB-231 breast, 57.2 µM in the test on HT29 colon and greater than 100 µM with SF-295 CNS.
Consider `CC(C)C(NC(=O)OCC1c2ccccc2-c2ccccc21)C(=O)NC(CCC(=O)OC(C)(C)C)C(=O)OC(C)(C)C` (stereo not drawn) (Fmoc-Val-Glu(OtBu)-OtBu; configuration not given here), for which the TGI in the test with HCT-15 colon, in the test on MDA-N, with MDA-MB-435, in the test with SW-620 colon, in the test with RXF 393 renal and in the test with IGROV1 ovarian was greater than 100 µM each time. In addition, the TGI in the test on NCI-H226 lung is greater than 100 µM; in the test on DU-145 prostate it was greater than 100 µM; in the test with T-47D breast it was greater than 72.7 µM; in the test with U251 CNS, greater than 100 µM; in the test on A498 renal, greater than 100 µM; with NCI-H460 lung, greater than 100 µM. Moreover, the TGI in the test with EKVX NSCLC is greater than 100 µM; with MDA-MB-231 breast it was greater than 100 µM; with HT29 colon, greater than 100 µM; with SF-295 CNS, greater than 89.1 µM.
